Literature values, collected in patent US10709666B2, “Carrier particles for dry powder formulations for inhalation” (CHIESI FARMACEUTICI S.P.A., priority 2017, dated 2020).

Conditions: room temperature

In the case of `OC[C@@H](O)[C@@H](O)[C@H](O)[C@H](O)CO` [mannitol], the “saturated concentration in water” value is listed as 18-21 % w/v.

For `O.OC[C@H]1O[C@@H](O[C@H]2[C@H](O)[C@@H](O)[C@@H](O)O[C@@H]2CO)[C@H](O)[C@@H](O)[C@H]1O` [alpha-lactose monohydrate], the “saturated concentration in water” value is given as 18-19 % w/v.
